Measured values: ChEMBL document CHEMBL3526124, “Optimized experimental design for the estimation of enzyme kinetic parameters: an experimental evaluation” (Drug Metab Dispos, 2012)

T1: Cytochrome P450 1A2 (Homo sapiens, UniProt P05177)
T1 sequence (P05177 whole entry): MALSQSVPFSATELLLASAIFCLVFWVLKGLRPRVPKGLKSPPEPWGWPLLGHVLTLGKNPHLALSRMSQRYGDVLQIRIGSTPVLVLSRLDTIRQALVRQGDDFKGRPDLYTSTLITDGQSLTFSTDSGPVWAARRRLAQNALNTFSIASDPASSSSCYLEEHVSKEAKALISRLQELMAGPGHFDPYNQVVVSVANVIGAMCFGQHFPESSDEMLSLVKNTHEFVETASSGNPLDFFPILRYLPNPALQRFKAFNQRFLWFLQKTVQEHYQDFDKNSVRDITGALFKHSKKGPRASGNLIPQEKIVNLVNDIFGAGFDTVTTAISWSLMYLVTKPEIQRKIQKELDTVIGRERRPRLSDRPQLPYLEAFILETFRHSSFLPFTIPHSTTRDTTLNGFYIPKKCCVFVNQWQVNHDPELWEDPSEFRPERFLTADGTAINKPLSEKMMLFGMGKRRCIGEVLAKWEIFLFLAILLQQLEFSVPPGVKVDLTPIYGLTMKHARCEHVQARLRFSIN


Tests used:
Liver microsome [1] = test: Drug metabolism in human liver microsomes assessed as intrinsic clearance per mg protein by multiple depletion curves method
Liver microsome [2] = test: Drug metabolism in human liver microsomes assessed as intrinsic clearance per mg protein by optimal design approach
[3] = Drug metabolism in human liver microsomes by multiple depletion curves method
[4] = Drug metabolism in human liver microsomes by optimal design approach
Cytochrome P450 2D6 [5] = biological target: T2, Cytochrome P450 2D6 (Homo sapiens, UniProt P10635); test: Drug metabolism in assessed as human CYP2D6-mediated intrinsic clearance per mg protein; format: ADME; conditions: recombinant enzyme
Cytochrome P450 2D6 [6] = biological target: T2, Cytochrome P450 2D6; test: Drug metabolism in assessed as human CYP2D6-mediated maximum rate of reaction per mg protein; format: ADME; conditions: recombinant enzyme
CYP2D6 = CYP2D6 (Homo sapiens, UniProt P10635); test: Drug metabolism in assessed as human CYP2D6-mediated metabolism; format: ADME; conditions: recombinant enzyme
Cytochrome P450 2C9 [7] = biological target: T3, Cytochrome P450 2C9 (Homo sapiens, UniProt P11712); test: Drug metabolism in assessed as human CYP2C9-mediated intrinsic clearance per mg protein; format: ADME; conditions: recombinant enzyme
T3 sequence (P11712 whole entry): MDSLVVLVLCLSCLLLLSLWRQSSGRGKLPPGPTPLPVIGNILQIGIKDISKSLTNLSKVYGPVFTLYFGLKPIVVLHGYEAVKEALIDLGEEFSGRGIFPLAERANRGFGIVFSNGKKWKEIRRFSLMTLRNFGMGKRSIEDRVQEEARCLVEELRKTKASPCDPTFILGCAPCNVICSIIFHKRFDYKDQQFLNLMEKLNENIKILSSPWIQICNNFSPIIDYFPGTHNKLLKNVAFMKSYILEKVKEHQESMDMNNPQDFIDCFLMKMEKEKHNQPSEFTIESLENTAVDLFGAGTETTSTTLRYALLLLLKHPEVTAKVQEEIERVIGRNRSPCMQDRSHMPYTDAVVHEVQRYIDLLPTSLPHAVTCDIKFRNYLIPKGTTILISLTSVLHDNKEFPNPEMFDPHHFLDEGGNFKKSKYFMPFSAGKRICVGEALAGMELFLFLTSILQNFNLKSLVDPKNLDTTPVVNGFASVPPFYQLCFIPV

Cytochrome P450 2C9 [8] = biological target: T3, Cytochrome P450 2C9; test: Drug metabolism in assessed as human CYP2C9-mediated maximum rate of reaction per mg protein; format: ADME; conditions: recombinant enzyme
CYP2C9 = CYP2C9 (Homo sapiens, UniProt P11712); test: Drug metabolism in assessed as human CYP2C9-mediated metabolism; format: ADME; conditions: recombinant enzyme
Sequence of CYP2C9 (P11712 whole entry): as above

[9] = Drug metabolism in assessed as human CYP3A-mediated maximum rate of reaction per mg protein; format: ADME; conditions: recombinant enzyme
[10] = Drug metabolism in assessed as human CYP3A-mediated intrinsic clearance per mg protein; format: ADME; conditions: recombinant enzyme
CYP3A = test: Drug metabolism in assessed as human CYP3A-mediated metabolism; format: ADME; conditions: recombinant enzyme
Cytochrome P450 1A2 [11] = biological target: T1, Cytochrome P450 1A2; test: Drug metabolism in assessed as human CYP1A2-mediated intrinsic clearance per mg protein; conditions: recombinant enzyme
Cytochrome P450 1A2 [12] = biological target: T1, Cytochrome P450 1A2; test: Drug metabolism in assessed as human CYP1A2-mediated maximum rate of reaction per mg protein; format: ADME; conditions: recombinant enzyme
not read [13] = substrate: CCc1cccc2cc(C(O)CNC(C)(C)C)oc12; test: not read
not read [14] = substrate: CN(C)CCCN1c2ccccc2CCc2ccccc21; test: not read

Molecule | CLH (Liver microsome [1]) | CLH (Liver microsome [2]) | Km ([3]; microsomes) | Km ([4]; microsomes) | Km ([3]; liver microsomes) | Km ([4]; liver microsomes) | also measured
CCN(CC)Cc1cc(Nc2ccnc3cc(Cl)ccc23)ccc1O [AMODIAQUINE] | 829 µL/min/g | 224 µL/min/g | 3.33 µM | 5.17 µM | – | – | –
CCc1cccc2cc(C(O)CNC(C)(C)C)oc12 (stereo not drawn) [BUFURALOL] | 31 µL/min/g | 32.3 µL/min/g | 11.7 µM | 12.8 µM | – | – | clearance (Cytochrome P450 2D6 [5]): 3 µL/min/mg
COc1ccc2c(c1)[C@]13CCCC[C@@H]1[C@H](C2)N(C)CC3 [DEXTROMETHORPHAN] | 84.1 µL/min/g | 54.2 µL/min/g | – | – | 7.16 µM | 6.32 µM | Vmax (Cytochrome P450 2D6 [6]): 140 pmol/min; Km (CYP2D6): 1.4 µM
O=C(O)Cc1ccccc1Nc1c(Cl)cccc1Cl [DICLOFENAC] | – | – | 11.6 µM | 8.55 µM | – | – | clearance (Cytochrome P450 2C9 [7]): 130 µL/min/mg; Vmax (Cytochrome P450 2C9 [8]): 710 pmol/min; Km (CYP2C9): 1.7 µM
COc1ccc([C@@H]2Sc3ccccc3N(CCN(C)C)C(=O)[C@@H]2OC(C)=O)cc1 [DILTIAZEM] | 47.6 µL/min/g | 75.4 µL/min/g | – | – | 10 µM | 9.8 µM | –
Cc1ncc2n1-c1ccc(Cl)cc1C(c1ccccc1F)=NC2 [MIDAZOLAM] | 717 µL/min/g | 220 µL/min/g | 1.26 µM | 3.04 µM | – | – | Vmax [9]: 636 pmol/min; CL [10]: 159 µL/min/g; Km (CYP3A): 1.2 µM
CCOc1ccc(NC(C)=O)cc1 [PHENACETIN] | 39.5 µL/min/g | 50.4 µL/min/g | – | – | 22.6 µM | 22.6 µM | CL (Cytochrome P450 1A2 [11]): 14.6 µL/min/g; Vmax (Cytochrome P450 1A2 [12]): 322 pmol/min
Cytochrome P450 2D6 (Homo sapiens) (protein) MGLEALVPLAVIVAIFLLLVDLMHRRQRWAARYPPGPLPLPGLGNLLHVDFQNTPYCFDQLRRRFGDVFSLQLAWTPVVVLNGLAAVREALVTHGEDTADRPPVPITQILGFGPRSQGVFLARYGPAWREQRRFSVSTLRNLGLGKKSLEQWVTEEAACLCAAFANHSGRPFRPNGLLDKAVSNVIASLTCGRRFEYDDPRFLRLLDLAQEGLKEESGFLREVLNAVPVLLHIPALAGKVLRFQKAFLTQLDELLTEHRMTWDPAQPPRDLTEAFLAEMEKAKGNPESSFNDENLRIVVADLFSAGMVTTSTTLAWGLLLMILHPDVQRRVQQEIDDVIGQVRRPEMGDQAHMPYTTAVIHEVQRFGDIVPLGVTHMTSRDIEVQGFRIPKGTTLITNLSSVLKDEAVWEKPFRFHPEHFLDAQGHFVKPEAFLPFSAGRRACLGEPLARMELFLFFTSLLQHFSFSVPTGQPRPSHHGVFAFLVSPSPYELCAVPR | – | – | – | – | – | – | Km (not read [13]): 8.2 µM; Vmax (not read [13]): 7e-05 µmol/min
Cytochrome P450 2C19 (Homo sapiens) (protein) MDPFVVLVLCLSCLLLLSIWRQSSGRGKLPPGPTPLPVIGNILQIDIKDVSKSLTNLSKIYGPVFTLYFGLERMVVLHGYEVVKEALIDLGEEFSGRGHFPLAERANRGFGIVFSNGKRWKEIRRFSLMTLRNFGMGKRSIEDRVQEEARCLVEELRKTKASPCDPTFILGCAPCNVICSIIFQKRFDYKDQQFLNLMEKLNENIRIVSTPWIQICNNFPTIIDYFPGTHNKLLKNLAFMESDILEKVKEHQESMDINNPRDFIDCFLIKMEKEKQNQQSEFTIENLVITAADLLGAGTETTSTTLRYALLLLLKHPEVTAKVQEEIERVIGRNRSPCMQDRGHMPYTDAVVHEVQRYIDLIPTSLPHAVTCDVKFRNYLIPKGTTILTSLTSVLHDNKEFPNPEMFDPRHFLDEGGNFKKSNYFMPFSAGKRICVGEGLARMELFLFLTFILQNFNLKSLIDPKDLDTTPVVNGFASVPPFYQLCFIPV | – | – | – | – | – | – | Km (not read [14]): 5 µM; Vmax (not read [14]): 0.000117 µmol/min
Cytochrome P450 1A2 (Homo sapiens) (protein) MALSQSVPFSATELLLASAIFCLVFWVLKGLRPRVPKGLKSPPEPWGWPLLGHVLTLGKNPHLALSRMSQRYGDVLQIRIGSTPVLVLSRLDTIRQALVRQGDDFKGRPDLYTSTLITDGQSLTFSTDSGPVWAARRRLAQNALNTFSIASDPASSSSCYLEEHVSKEAKALISRLQELMAGPGHFDPYNQVVVSVANVIGAMCFGQHFPESSDEMLSLVKNTHEFVETASSGNPLDFFPILRYLPNPALQRFKAFNQRFLWFLQKTVQEHYQDFDKNSVRDITGALFKHSKKGPRASGNLIPQEKIVNLVNDIFGAGFDTVTTAISWSLMYLVTKPEIQRKIQKELDTVIGRERRPRLSDRPQLPYLEAFILETFRHSSFLPFTIPHSTTRDTTLNGFYIPKKCCVFVNQWQVNHDPELWEDPSEFRPERFLTADGTAINKPLSEKMMLFGMGKRRCIGEVLAKWEIFLFLAILLQQLEFSVPPGVKVDLTPIYGLTMKHARCEHVQARLRFSIN | – | – | – | – | – | – | Km (not read [14]): 5 µM; Vmax (not read [14]): 0.000117 µmol/min
